From patent publication US20230295574A1, “GINGIVAL TISSUES AND METHODS OF PREPARATION THEREOF” (National University of Singapore, priority 2020, published 2023) come the findings set out here.

Each structure is given as a SMILES string.

For data set [1], the system named is Gingiva-FT gingival tissue equivalents. The experiment in a line: Mucosal irritation and barrier integrity of mouthwashes on intact Gingiva-FT. How it is done: To evaluate the use of 3D cultured gingival tissue equivalents of the present invention for mucosal irritation, we investigated the impact of 2 commercially available mouthwashes. To mimic the actual use case scenario, gingival tissue equivalents (surface area 0.78 cm^2) were exposed to 130 μl alcohol-free (Listerine® Gum care Zero) or alcohol-based (Listerine® Cool Mint) mouthwashes for 30 secs, washed, and cultured. After 10 hours, the tissues were re-exposed to the respective mouthwash, washed and cultured for 24 hours. Phosphate buffered saline (PBS) and 1% sodium lauryl sulphate was used as negative and positive controls respectively. Based on the OECD TG439 guidelines, 50% cellular viability was set as threshold for classification of mucosal irritants.

For data set [2], the system named is lamina propria equivalents. The data set can be described thus: Mucosal irritation of mouthwashes on lamina propria equivalents (oral ulcer model). On the procedure: Oral ulcers are one of the most common disturbances in the oral cavity. Since, the oral ulcers is devoid of the overlying epithelium, the barrier function provided by the epithelium is lost. […] To evaluate the use of 3D cultured lamina propria equivalents as a model of oral ulcers, we investigated the impact of 2 commercially available mouthwashes for mucosal irritation. To mimic the actual use case scenario, gingival tissue equivalents (surface area 0.78 cm^2) were exposed to 130 μl alcohol-free (Listerine® Gum care Zero) or alcohol-based (Listerine® Cool Mint) mouthwashes for 30 secs, washed, and cultured. After 10 hours, the tissues were re-exposed to the respective mouthwash, washed and cultured for 24 hours. Phosphate buffered saline (PBS) and 1% sodium lauryl sulphate was used as negative and positive controls respectively. Based on the OECD TG439 guidelines, 50% cellular viability was set as threshold for classification of mucosal irritation.

Data set [3] deals with Gingiva-FT gingival tissue equivalents. The data set can be described thus: Mucosal corrosion on Gingiva-FT (OECD TG431). The data set is classed as cell-based, human. The following applies: for tissue disruption: Gingiva-FT. How it is done: Some excipients used to incorporate the actives and formulate oral/dental care products and pharmaceuticals, have the potential to cause mucosal corrosion similar to caustic substances like acids and bases. […] Based on the OECD TG431 guidelines, 50% and 15% cellular viability was set as thresholds for 3 min and 60 min exposures respectively.

Setting [4] is: exposure 30 secs twice, 24 hours culture.
Where [5] appears, read: lamina propria equivalents, exposure 30 secs twice, 24 hours culture.

With `CCCCCCCCCCCCOS(=O)(=O)[O-].[Na+]` [1% sodium lauryl sulphate, sodium lauryl sulphate], in data set [1] (setting [4]), the “TUNEL staining (apoptosis/cell death)” value is “TUNEL positivity”, the “cytotoxicity (LDH assay)” value is recorded as “markedly increased cytotoxicity” and the “tissue / epithelial disruption” value was “significant tissue disruption”. Moreover, in data set [1] (exposure 30 secs, re-exposed after 10 hours, cultured 24 hours, 50% threshold (OECD TG439)), the cellular viability was < 50%. The cellular viability in data set [2] (lamina propria equivalents (ulcer model), exposure 30 secs, re-exposed after 10 hours, cultured 24 hours, 50% threshold (OECD TG439)) is listed as < 50%. Also, in data set [2] (setting [5]), the “TUNEL staining (apoptosis/cell death)” value was “TUNEL positivity”, the “cytotoxicity (LDH assay)” value is “markedly increased cytotoxicity” and the tissue disruption result is “significant tissue disruption”.
Regarding `O=P(O)(O)O` [37% phosphoric acid, phosphoric acid], the tissue disruption entry in data set [3] (3 min exposure) is “tissue disruption”; in data set [3] (60 min exposure) it was “almost complete lysis of the tissues”. Moreover, the mucosal corrosion classification result in data set [3] (OECD TG431) is recorded as “corrosive (category 1A)”.
